Laboratory results taken from US6472348B1, “Pyridone derivatives and herbicides” (Kumiai Chemical Industry Co., Ltd., priority 1996, dated 2002).

Key:
[1] = tested on: common lambsquarters (Ch); assay: Test Example 9: crop plant selectivity by upland field foliage treatment (wheat), herbicidal effects; format: in vivo; parameters: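 grade of growth control; 5 = at least 90%; 4 = 70 to 90%; 3 = 50 to 70%; 2 = 30 to 50%; 1 = 10 to 30%; 0 = under 10%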; conditions: dose 1.6 g ai/10a, 14th day after treatment
Summary of the method: (§1)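 Sand-filled pot, wheat + weeds co-sown; greenhouse 2 wk, then foliage treatment; greenhouse culture continued; visual scoring of weed control and crop injury at 14 d post-treatment per grading scale.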

[2] = tested on: pale smartweed (Po); assay: as above; format: in vivo; parameters: scale not given here; conditions: dose 1.6 g ai/10a, 14th day after treatment
Summary of the method: as §1

[3] = tested on: China jute (Ab); assay: as above; format: in vivo; parameters: scale not given here; conditions: dose 1.6 g ai/10a, 14th day after treatment
Summary of the method: as §1

[4] = tested on: slender amaranth (Am); assay: as above; format: in vivo; parameters: scale not given here; conditions: dose 1.6 g ai/10a, 14th day after treatment
Summary of the method: as §1

[5] = tested on: bulrush (Sc); assay: Test Example 1: herbicidal effects by paddy field soil treatment; format: in vivo; conditions: 100 g of the active ingredient per 10 ares, 21st day after the application, index 0-5 of Table 47;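 note: grade of growth control; 5 = at least 90%; 4 = 70 to 90%; 3 = 50 to 70%; 2 = 30 to 50%; 1 = 10 to 30%; 0 = under 10%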
Summary of the method: (§2)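 Herbicidal effect was scored against a graded standard 21 days after treatment. Seeds were sown in puddled, leveled paddy soil flooded to 3 cm depth, and the active ingredient was applied at 100 g per 10 ares before greenhouse culture.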

[6] = tested on: barnyardgrass (Ec); assay: as above; format: in vivo; conditions: 100 g of the active ingredient per 10 ares, 21st day after the application, index 0-5 of Table 47
Summary of the method: as §2

[7] = tested on: monochoria (Mo); assay: as above; format: in vivo; conditions: 100 g of the active ingredient per 10 ares, 21st day after the application, index 0-5 of Table 47;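 note: grade of growth control; 5 = at least 90%; 4 = 70 to 90%; 3 = 50 to 70%; 2 = 30 to 50%; 1 = 10 to 30%; 0 = under 10%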
Summary of the method: as §2

[8] = tested on: common lambsquarters (Ch); assay: Test Example 10: crop plant selectivity by upland field foliage treatment (soybean), herbicidal effects; format: in vivo; conditions: dose 1.6 g ai/10a, 14th day after treatment
Description: (§3) (Test on Crop Plant Selectivity by Upland Field Foliage Treatment)
(§4) In a plastic pot (surface area: 600 cm^2) filled with sand, soybean (Gl), pale smartweed (Po), slender amaranth (Am), common lambsquarters (Ch) and China jute (Ab) were sown and cultured in a green house for 2 weeks. […] The plants were then cultured in a green house, and the evaluation of the herbicidal effects and phytotoxicity was conducted on the 14th day after the treatment in accordance with the standards as identified in Table 47.

[9] = tested on: pale smartweed (Po); assay: as above; format: in vivo; conditions: dose 1.6 g ai/10a, 14th day after treatment
Description: as §3, §4

[10] = tested on: China jute (Ab); assay: as above; format: in vivo; conditions: dose 1.6 g ai/10a, 14th day after treatment
Description: as §3, §4

[11] = tested on: slender amaranth (Am); assay: as above; format: in vivo; conditions: dose 1.6 g ai/10a, 14th day after treatment
Description: as §3, §4

[12] = tested on: Diaitaria ciliaris (Di); assay: Test Example 3: herbicidal effects by upland field foliage treatment; format: in vivo; parameters: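 grade of growth control; 5 = at least 90%; 4 = 70 to 90%; 3 = 50 to 70%; 2 = 30 to 50%; 1 = 10 to 30%; 0 = under 10%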; conditions: 100 g of the active ingredient per 10 ares, evaluated on the 14th day after treatment
Summary of the method: (§5)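 Weeds were sown in sand-filled pots (surface area: 120 cm^2), covered with soil and grown in a greenhouse for 2 weeks before foliar treatment. Plants then stayed in the greenhouse, and herbicidal effect was scored against graded standards on the 14th day after treatment.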

[13] = tested on: common lambsquarters (Ch); assay: as above; format: in vivo; parameters: scale not given here; conditions: 100 g of the active ingredient per 10 ares, evaluated on the 14th day after treatment
Summary of the method: as §5

[14] = tested on: barnyardgrass (Ec); assay: as above; format: in vivo; parameters: scale not given here; conditions: 100 g of the active ingredient per 10 ares, evaluated on the 14th day after treatment
Summary of the method: as §5

[15] = tested on: pale smartweed (Po); assay: as above; format: in vivo; parameters: scale not given here; conditions: 100 g of the active ingredient per 10 ares, evaluated on the 14th day after treatment
Summary of the method: as §5

[16] = tested on: rice flatsedge (Ci); assay: as above; format: in vivo; parameters: scale not given here; conditions: 100 g of the active ingredient per 10 ares, evaluated on the 14th day after treatment
Summary of the method: as §5

[17] = tested on: slender amaranth (Am); assay: as above; format: in vivo; parameters: scale not given here; conditions: 100 g of the active ingredient per 10 ares, evaluated on the 14th day after treatment
Summary of the method: as §5

[18] = tested on: common lambsquarters (Ch); assay: Test Example 11: crop plant selectivity by upland field foliage treatment (corn), herbicidal effects; format: in vivo; parameters: scale not given here; conditions: upland field foliage treatment (corn test), dose 1.6 g ai/10a, 14th day after treatment
Summary of the method: (§6)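 Corn with pale smartweed, slender amaranth, common lambsquarters and China jute sown in sand-filled pots and grown 2 weeks in a greenhouse before foliage treatment. Herbicidal effect and crop phytotoxicity scored on day 14 after treatment against a rating standard.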

[19] = tested on: pale smartweed (Po); assay: as above; format: in vivo; parameters: scale not given here; conditions: upland field foliage treatment (corn test), dose 1.6 g ai/10a, 14th day after treatment
Summary of the method: as §6

[20] = tested on: China jute (Ab); assay: as above; format: in vivo; parameters: scale not given here; conditions: upland field foliage treatment (corn test), dose 1.6 g ai/10a, 14th day after treatment
Summary of the method: as §6

[21] = tested on: slender amaranth (Am); assay: as above; format: in vivo; parameters: scale not given here; conditions: upland field foliage treatment (corn test), dose 1.6 g ai/10a, 14th day after treatment
Summary of the method: as §6

[22] = tested on: common lambsquarters (Ch); assay: Test Example 2: herbicidal effects by upland field soil treatment; format: in vivo; conditions: 100 g of the active ingredient per 10 ares, 21st day after the application, index 0-5 of Table 47;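 note: grade of growth control; 5 = at least 90%; 4 = 70 to 90%; 3 = 50 to 70%; 2 = 30 to 50%; 1 = 10 to 30%; 0 = under 10%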
Source text: (§7) (Test on Herbicidal Effects by Upland Field Soil Treatment)

[23] = tested on: barnyardgrass (Ec); assay: as above; format: in vivo; conditions: 100 g of the active ingredient per 10 ares, 21st day after the application, index 0-5 of Table 47
Source text: as §7

[24] = tested on: pale smartweed (Po); assay: as above; format: in vivo; conditions: 100 g of the active ingredient per 10 ares, 21st day after the application, index 0-5 of Table 47
Source text: as §7

[25] = tested on: rice flatsedge (Ci); assay: as above; format: in vivo; conditions: 100 g of the active ingredient per 10 ares, 21st day after the application, index 0-5 of Table 47
Source text: as §7

[26] = tested on: slender amaranth (Am); assay: as above; format: in vivo; conditions: 100 g of the active ingredient per 10 ares, 21st day after the application, index 0-5 of Table 47
Source text: as §7

[27] = tested on: Digitaria ciliaris (Di); assay: as above; format: in vivo; conditions: 100 g of the active ingredient per 10 ares, 21st day after the application, index 0-5 of Table 47;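 note: grade of growth control; 5 = at least 90%; 4 = 70 to 90%; 3 = 50 to 70%; 2 = 30 to 50%; 1 = 10 to 30%; 0 = under 10%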
Source text: as §7

[28] = tested on: wheat (Tr); assay: Test Example 9: crop plant selectivity by upland field foliage treatment (wheat), phytotoxicity; conditions: dose 1.6 g ai/10a, 14th day after treatment
Summary of the method: as §1

[29] = tested on: soybean (Gl); assay: Test Example 10: crop plant selectivity by upland field foliage treatment (soybean), phytotoxicity; conditions: dose 1.6 g ai/10a, 14th day after treatment
Description: as §3, §4

[30] = tested on: corn (Ze); assay: Test Example 11: crop plant selectivity by upland field foliage treatment (corn), phytotoxicity; conditions: upland field foliage treatment, dose 1.6 g ai/10a, 14th day after treatment
Summary of the method: as §6

SMILES	Herbicidal effects Ch [1]	Herbicidal effects Po [2]	Herbicidal effects Ab [3]	Herbicidal effects Am [4]	Herbicidal effects Ch [8]	Herbicidal effects Po [9]	Herbicidal effects Ab [10]	Herbicidal effects Am [11]	Herbicidal effects Ch [18]	Herbicidal effects Po [19]	Herbicidal effects Ab [20]	Herbicidal effects Am [21]	Herbicidal effects Ch [22]	Herbicidal effects Ec [23]	Herbicidal effects Po [24]	Herbicidal effects Ci [25]	Herbicidal effects Am [26]	Herbicidal effects Di [27]	Phytotoxicity Tr [28]	Phytotoxicity Gl [29]	further results
Cn1c(C(F)(F)F)ccc(-c2cc(OC3CCCC3)c(Cl)cc2F)c1=O [1-26]	5	5	5	5	5	5	5	5	5	5	5	5	5	5	5	5	5	5	2	2	Herbicidal effects Sc [5]: 5; Herbicidal effects Ec [6]: 5; Herbicidal effects Mo [7]: 5; Herbicidal effects Di [12]: 5; Herbicidal effects Ch [13]: 5; Herbicidal effects Ec [14]: 5; Herbicidal effects Po [15]: 5; Herbicidal effects Ci [16]: 5; Herbicidal effects Am [17]: 5; Phytotoxicity Ze [30]: 2
C#CCSc1cc(-c2ccc(C(F)(F)F)n(C)c2=O)c(Cl)cc1Cl [1-52]	5	5	5	5	5	5	5	5	5	5	5	5	5	5	5	5	5	5	1	2	Phytotoxicity Ze [30]: 2
CCC(=O)c1cc(-c2ccc(C(F)(F)F)n(C)c2=O)c(F)cc1Cl [1-69]	5	5	5	5	5	5	5	5	5	5	5	5	5	5	5	5	5	5	1	2	Herbicidal effects Sc [5]: 5; Herbicidal effects Ec [6]: 5; Herbicidal effects Mo [7]: 5; Herbicidal effects Di [12]: 5; Herbicidal effects Ch [13]: 5; Herbicidal effects Ec [14]: 5; Herbicidal effects Po [15]: 5; Herbicidal effects Ci [16]: 5; Herbicidal effects Am [17]: 5; Phytotoxicity Ze [30]: 2
